Publication PMC4446597, “Novel Adociaquinone Derivatives from the Indonesian Sponge Xestospongia sp” (Marine Drugs, 2015)
Counter-ions that a name gives are not always drawn.

Tests used:
CDK9/cyclin T = CDK9/cyclin T (Homo sapiens, UniProt P50750); test: Protein kinase assay, CDK9/cyclin T; type: biochemical; conditions: 15 µM ATP, 30 °C, triplicates
Protocol: (§1) Evaluation of the protein kinase inhibitory activity was performed in vitro as previously described. Briefly, homogenization buffer: 60 mM β-glycerophosphate, 15 mM p-nitrophenylphosphate, 25 mM Mops (pH 7.2), 15 mM EGTA, 15 mM MgCl2, 1 mM dithiothreitol, 1 mM sodium vanadate, 1 mM NaF, 1 mM phenylphosphate, 10 µg leupeptin mL^−1, 10 µg aprotinin mL^−1, 10 µg soybean trypsin inhibitor mL^−1, and 100 µg benzamidine. Buffer A: 10 mM MgCl2, 1 mM EGTA, 1 mM dithiothreitol, 25 mM Tris-HCl pH 7.5, 50 µg heparin mL^−1. Buffer C: homogenization buffer but 5 mM EGTA, no NaF and no protease inhibitors. Kinase activities were assayed in triplicates in buffer A or C at 30 °C, at a final ATP concentration of 15 µM. The order of mixing the reagents was: buffers, substrate, enzyme, inhibitor and ^33P-radiolabelled ATP. Isolated compounds were tested against a panel of eight kinases; namely cyclin-dependent kinase 1 (CDK1/cyclin B), cyclin-dependent kinase 2 (CDK2/cyclin A), cyclin-dependent kinase 5 (CDK5/p25), cyclin-dependent kinase 9 (CDK9/cyclin T), casein kinase 1 (CK1), Cdc2-like kinase 1 (CLK1), dual-specificity tyrosine-(Y)-phosphorylation regulated kinase 1A (DYRK1A) and glycogen synthase kinase-3α/β (GSK-3α/β).

CDK2/cyclin A = CDK2/cyclin A (Homo sapiens, UniProt P24941); test: Protein kinase assay, CDK2/cyclin A; type: biochemical; conditions: 15 µM ATP, 30 °C, triplicates
Protocol: as §1

casein kinase 1 (CK1) = test: Protein kinase assay, casein kinase 1; type: biochemical; conditions: 15 µM ATP, 30 °C, triplicates
Protocol: as §1

topoisomerase II = test system: topoisomerase II; design: method as in PMID 7473578; conditions: catalytic DNA unwinding and decatenation assays, KSDS assay; cited from earlier work
[1] = target: glycogen synthase kinase-3α/β (GSK-3α/β); test: Protein kinase assay, GSK-3α/β; type: biochemical; conditions: 15 µM ATP, 30 °C, triplicates, read-out: GSK3 IC50
Protocol: as §1

CDK5/p25 = CDK5/p25 (Homo sapiens, UniProt Q00535); test: Protein kinase assay, CDK5/p25; type: biochemical; conditions: 15 µM ATP, 30 °C, triplicates
CDK5/p25, sequence (Q00535 whole entry, species assumed): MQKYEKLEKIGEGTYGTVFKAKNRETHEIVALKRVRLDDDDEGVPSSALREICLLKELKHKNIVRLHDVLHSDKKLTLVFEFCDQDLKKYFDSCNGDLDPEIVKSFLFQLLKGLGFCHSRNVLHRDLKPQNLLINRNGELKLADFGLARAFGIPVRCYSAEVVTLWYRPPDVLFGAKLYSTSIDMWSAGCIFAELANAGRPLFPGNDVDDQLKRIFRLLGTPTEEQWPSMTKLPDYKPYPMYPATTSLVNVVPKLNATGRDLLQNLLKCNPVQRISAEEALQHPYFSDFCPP
CDK5/p25, sequence (Q15078 99-307 partner limits assumed, species assumed): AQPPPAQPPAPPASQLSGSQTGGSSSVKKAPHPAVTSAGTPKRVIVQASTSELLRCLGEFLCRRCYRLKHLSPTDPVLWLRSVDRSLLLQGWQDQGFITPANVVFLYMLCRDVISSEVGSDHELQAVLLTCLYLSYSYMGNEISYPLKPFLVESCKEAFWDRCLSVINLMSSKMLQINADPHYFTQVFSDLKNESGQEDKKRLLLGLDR
Protocol: as §1

CDK1/cyclin B = test: Protein kinase assay, CDK1/cyclin B; type: biochemical; conditions: 15 µM ATP, 30 °C, triplicates
Protocol: as §1

[2] = test system: Staphylococcus aureus ATCC 6538; test: Antibacterial assay, growth inhibition in liquid culture; type: cell-based; conditions: ATCC6538, S. aureus ATCC 6538, OD 620 nm after 16 to 18 h, read-out: antibacterial activity IC50 against Staphylococcus aureus
Protocol: The antibacterial activity assay was conducted on the bacterial strain Gram-positive Staphylococcus aureus ATCC 6538 and Gram-negative Escherichia coli ATCC 8739 evaluated in vitro by determining the IC50. A pre-culture of 5 mL LB (Luria Bertoni) medium was prepared by inoculating a colony of the bacterial strain and was incubated at 37 °C with stirring overnight. The concentration of the pre-culture was assessed by measuring the optical density OD at 620 nm and adjusted by dilution to obtain a suspension of 0.03 OD. The […] was determined by a liquid test in 96-well-plates. A quantity of 200 µL of the bacterial suspension was distributed in each well and 10 µL of the extracts, fractions or pure compounds solutions in DMSO (10, 5 and 2 mg/mL, respectively) were added in triplicate. The 96 well-plates were incubated at 30 °C for 16 to 18 h with shaking (450 rpm). The optical density of the wells was measured at 620 nm and the results were interpreted by calculating the percentage of growth inhibition in each well using the formula: % inhibition = 100 − (DOS − DOB)/(DOT − DOB) ×100 where T = bacterial suspension without test sample, B = culture medium without bacteria and S = bacterial suspension test sample. Ampicillin and chloramphenicol were used as positive control against S. aureus and E. coli, respectively.

DYRK1A = DYRK1A (Rattus norvegicus, UniProt Q63470); test: Protein kinase assay, DYRK1A; type: biochemical
Protocol: as §1

[3] = target: human farnesyltransferase; design: method as in PMID 20634081; conditions: read-out: IC50 against human farnesyltransferase; cited from earlier work
[4] = target: yeast farnesyltransferase; design: method as in PMID 20634081; conditions: read-out: IC50 against yeast farnesyltransferase; cited from earlier work

CDK9/cyclin T, sequence (P50750 whole entry, species assumed): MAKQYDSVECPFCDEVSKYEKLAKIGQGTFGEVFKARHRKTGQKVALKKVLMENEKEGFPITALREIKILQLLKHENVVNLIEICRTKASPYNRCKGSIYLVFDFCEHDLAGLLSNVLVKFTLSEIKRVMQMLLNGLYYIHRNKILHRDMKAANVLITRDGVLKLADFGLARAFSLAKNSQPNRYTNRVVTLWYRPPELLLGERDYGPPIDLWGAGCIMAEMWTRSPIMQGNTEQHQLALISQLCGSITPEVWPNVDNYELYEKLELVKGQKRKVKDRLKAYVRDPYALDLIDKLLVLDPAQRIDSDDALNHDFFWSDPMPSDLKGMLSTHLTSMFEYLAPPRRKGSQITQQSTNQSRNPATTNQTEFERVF
CDK9/cyclin T, sequence (O60563 whole entry partner, species assumed): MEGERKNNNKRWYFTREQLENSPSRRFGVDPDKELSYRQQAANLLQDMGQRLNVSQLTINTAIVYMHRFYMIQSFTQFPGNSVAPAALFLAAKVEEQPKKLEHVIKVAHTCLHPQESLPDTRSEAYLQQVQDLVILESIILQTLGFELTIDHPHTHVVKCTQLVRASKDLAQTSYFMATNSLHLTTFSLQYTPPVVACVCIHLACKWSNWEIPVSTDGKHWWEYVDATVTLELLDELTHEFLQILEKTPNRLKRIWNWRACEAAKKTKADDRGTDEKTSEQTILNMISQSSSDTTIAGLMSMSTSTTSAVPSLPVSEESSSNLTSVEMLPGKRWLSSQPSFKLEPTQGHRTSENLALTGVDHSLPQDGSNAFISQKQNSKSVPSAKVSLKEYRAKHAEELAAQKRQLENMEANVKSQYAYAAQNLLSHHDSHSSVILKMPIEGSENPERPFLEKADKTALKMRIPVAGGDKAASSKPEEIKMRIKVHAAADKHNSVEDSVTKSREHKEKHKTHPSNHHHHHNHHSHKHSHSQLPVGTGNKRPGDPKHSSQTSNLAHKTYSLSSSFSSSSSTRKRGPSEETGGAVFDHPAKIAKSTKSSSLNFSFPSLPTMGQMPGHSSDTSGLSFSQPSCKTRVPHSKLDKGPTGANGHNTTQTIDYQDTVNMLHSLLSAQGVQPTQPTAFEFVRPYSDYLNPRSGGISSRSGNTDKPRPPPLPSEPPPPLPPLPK

Question: With `C[C@@]12CCCc3coc(c31)C(=O)c1cc3c(cc12)C(=O)C1=C(NCCS1(=O)=O)C3=O` [Compound 6, adociaquinone B] as the compound, how does the IC50 (CDK9/cyclin T) read?
Answer: 3 µM

Question: What about the IC50 (CDK2/cyclin A) of the same compound?
Answer: > 10 µM

Question: What about the IC50 (casein kinase 1 (CK1)) of the same compound?
Answer: > 10 µM

Question: And the “inhibition of topoisomerase II (in words)” value (topoisomerase II)?
Answer: inhibition of topoisomerase II

Question: What about the IC50 [1] of the same compound?
Answer: > 10 µM

Question: And the IC50 (CDK5/p25)?
Answer: > 10 µM

Question: What about the IC50 (CDK1/cyclin B) of the same compound?
Answer: > 10 µM

Question: Which IC50 (CDK9/cyclin T) does the source give for `C[C@@]12CCCc3coc(c31)C(=O)c1cc3c(cc12)C(=O)C=C(NCCS(=O)(=O)O)C3=O` [Compound 8, secoadociaquinone B] here?
Answer: > 10 µM

Question: What about the IC50 (CDK2/cyclin A) of the same compound?
Answer: > 10 µM

Question: And the IC50 (casein kinase 1 (CK1))?
Answer: > 10 µM

Question: And the IC50 [1]?
Answer: > 10 µM

Question: What about the IC50 (CDK5/p25) of the same compound?
Answer: 6 µM

Question: What about the IC50 (CDK1/cyclin B) of the same compound?
Answer: > 10 µM

Question: For `C[C@@]12CCCc3coc(c31)C(=O)c1cc3c(O)ccc(OS(=O)(=O)O)c3cc12` [Compound 11, xestoquinol sulfate], which IC50 [2] is on record?
Answer: 125 µM

Question: For `C[C@@]12CCC(=O)c3coc(c31)C(=O)c1cc3c(O)ccc(OS(=O)(=O)O)c3cc12` [Compound 12], which IC50 (CDK9/cyclin T) is on record?
Answer: 0.5 µM

Question: And the IC50 (CDK2/cyclin A)?
Answer: 7.5 µM

Question: And the IC50 (casein kinase 1 (CK1))?
Answer: 5.2 µM

Question: And the IC50 [1]?
Answer: 0.61 µM

Question: What about the IC50 (CDK5/p25) of the same compound?
Answer: 2.2 µM

Question: And the IC50 (CDK1/cyclin B)?
Answer: 4.3 µM

Question: Which IC50 (CDK9/cyclin T) does the source give for `CO[C@]12OC(O)C3=C1[C@@](C)(CCC3=O)c1cc3c(OS(=O)(=O)O)ccc(O)c3cc1C2=O` (stereo partly drawn) [Compound 13] here?
Answer: > 10 µM

Question: And the “activity against DYRK1A (in words)” value (DYRK1A)?
Answer: marginal activity

Question: What about the IC50 (CDK2/cyclin A) of the same compound?
Answer: > 10 µM

Question: And the IC50 (casein kinase 1 (CK1))?
Answer: > 10 µM

Question: And the IC50 [1]?
Answer: > 10 µM

Question: What about the IC50 (CDK5/p25) of the same compound?
Answer: > 10 µM

Question: What about the IC50 (CDK1/cyclin B) of the same compound?
Answer: > 10 µM

Question: For `CC1=CCCC2(C)C1=C(O)C(=O)c1cc3c(cc12)C(=O)C=CC3=O` (stereo not drawn) [Orhalquinone], which IC50 [3] is on record?
Answer: 0.4 µM

Question: What about the IC50 [4] of the same compound?
Answer: 0.4 µM

Question: Which “inhibition of topoisomerase II (in words)” value (topoisomerase II) does the source give for adociaquinone A [Compound 5] here?
Answer: inhibition of topoisomerase II
